According to patent US8680159B2, “Bradykinin 1 receptor modulating compounds” (Gruenenthal GmbH, priority 2010, dated 2014):

Tests used:
[1] = biological target: T1, human B1R receptor (CHO K1 cells stably transfected with the human B1R gene) (Homo sapiens, UniProt P46663); test: Functional study on the bradykinin receptor 1 (B1R), Ca2+ fluorescence (Fluo-4) FLIPR/Novostar assay, hB1R cells; type: cell-based; settings: CHO-K1, read-out: % inhibition (human B1R) at 10 μM
T1 construct: expressed in transfected cells; host or cells: CHO K1 cells (Chinese hamster ovary), stably transfected
T1 sequence (P46663 1-353): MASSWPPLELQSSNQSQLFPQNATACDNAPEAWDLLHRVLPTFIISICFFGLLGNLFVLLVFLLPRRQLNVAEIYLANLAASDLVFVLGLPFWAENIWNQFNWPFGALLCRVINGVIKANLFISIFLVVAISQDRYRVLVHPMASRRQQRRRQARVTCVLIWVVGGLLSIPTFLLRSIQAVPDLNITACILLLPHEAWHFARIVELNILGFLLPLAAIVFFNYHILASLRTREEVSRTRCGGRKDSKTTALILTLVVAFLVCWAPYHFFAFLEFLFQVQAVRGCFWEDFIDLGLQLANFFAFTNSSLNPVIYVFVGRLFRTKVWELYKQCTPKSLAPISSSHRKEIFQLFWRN
In short: (§1)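 Stably transfected CHO K1 cells carrying human or rat B1R were Fluo-4 loaded and Ca2+ fluorescence read by FLIPR or Novostar. Compounds were added first at 10 μM for % activation, then the EC80 agonist was applied after 6-20 min (human: Lys-Des-Arg9-bradykinin; rat: Des-Arg9-bradykinin). % inhibition is relative to maximum achievable inhibition, and IC50 comes from concentration series.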

[2] = biological target: T2, B1R receptor of the rat (CHO K1 cells stably transfected with the B1R gene of the rat) (Rattus norvegicus, UniProt P97583); test: Functional study on the bradykinin receptor 1 (B1R), Ca2+ fluorescence (Fluo-4) FLIPR/Novostar assay, rB1R cells; type: cell-based; settings: CHO-K1, 10 μM, read-out: % inhibition (rat B1R) at 10 μM
T2 construct: expressed in transfected cells; host or cells: CHO K1 cells (Chinese hamster ovary), stably transfected
T2 sequence (P97583 1-337): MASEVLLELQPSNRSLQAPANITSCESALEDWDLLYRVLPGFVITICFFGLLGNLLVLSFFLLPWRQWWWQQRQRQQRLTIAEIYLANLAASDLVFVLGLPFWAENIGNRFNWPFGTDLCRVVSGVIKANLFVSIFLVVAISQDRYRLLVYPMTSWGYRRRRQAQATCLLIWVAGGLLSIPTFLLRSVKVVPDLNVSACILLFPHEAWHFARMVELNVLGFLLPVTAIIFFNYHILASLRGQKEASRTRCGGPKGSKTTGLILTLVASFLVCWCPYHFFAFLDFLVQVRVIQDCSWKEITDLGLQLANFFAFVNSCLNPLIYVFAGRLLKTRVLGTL
In short: as §1

| Structure (SMILES) | inhibition at 10 µM [1] | inhibition at 10 µM [2] |
| --- | --- | --- |
| CN(C(=O)c1ccc2c(c1)[C@H](NC(=O)c1cccc(C(F)(F)F)c1Cl)CC2)C1CCN(c2ccncc2)CC1 [Example H-24, (3R)-3-[[2-Chloro-3-(trifluoromethyl)-benzoyl]amino]-N-methyl-N-(1-pyridin-4-yl-piperidin-4-yl)-2,3-dihydro-1H-indene-5-carboxylic acid amide] | 100% | 98% |
| CN(C(=O)c1ccc2c(c1)[C@H](NC(=O)Cc1ccccc1)CC2)C1CCN(c2ccncc2)CC1 [Example H-25, (3R)-N-Methyl-3-[(2-phenyl-acetyl)amino]-N-(1-pyridin-4-yl-piperidin-4-yl)-2,3-dihydro-1H-indene-5-carboxylic acid amide] | 100% | 96% |
| CN(C(=O)c1ccc2c(c1)CC[C@H]2N1Cc2cccc(Cl)c2C1=O)C1CCN(c2ccccn2)CC1 [Example H-26, (1R)-1-(4-Chloro-3-oxo-1,2-dihydro-isoindol-2-yl)-N-methyl-N-(1-pyridin-2-yl-piperidin-4-yl)-2,3-dihydro-1H-indene-5-carboxylic acid amide] | 52% | 0% |
| CN(C(=O)c1ccc2c(c1)CC[C@H]2N1Cc2cccc(Cl)c2C1=O)C1CCN(Cc2ccncc2)CC1 [Example H-27, (1R)-1-(4-Chloro-3-oxo-1,2-dihydro-isoindol-2-yl)-N-methyl-N-[1-(pyridin-4-yl-methyl)-piperidin-4-yl]-2,3-dihydro-1H-indene-5-carboxylic acid amide] | 74% | 11% |
| CC(C)CC(=O)N[C@@H]1CCc2ccc(C(=O)N(C)C3CCN(c4ccncc4)CC3)cc21 [Example H-28, (3R)-N-Methyl-3-(3-methyl-butanoylamino)-N-(1-pyridin-4-yl-piperidin-4-yl)-2,3-dihydro-1H-indene-5-carboxylic acid amide] | 100% | 100% |
| CN(C(=O)c1ccc2c(c1)[C@H](NC(=O)c1ccccc1F)CC2)C1CCN(c2ccncc2)CC1 [Example H-29, (3R)-3-[(2-Fluoro-benzoyl)amino]-N-methyl-N-(1-pyridin-4-yl-piperidin-4-yl)-2,3-dihydro-1H-indene-5-carboxylic acid amide] | 99% | 100% |
| CN(C(=O)c1ccc2c(c1)[C@H](NC(=O)c1ccccc1C(F)(F)F)CC2)C1CCN(c2ccncc2)CC1 [Example H-30, (3R)-N-Methyl-N-(1-pyridin-4-yl-piperidin-4-yl)-3-[[2-(trifluoromethyl)-benzoyl]amino]-2,3-dihydro-1H-indene-5-carboxylic acid amide] | 100% | 99% |
| CN(C(=O)c1ccc2c(c1)[C@H](NC(=O)c1cncnc1)CC2)C1CCN(c2ccncc2)CC1 [Example H-31, N-[(1R)-6-[Methyl-(1-pyridin-4-yl-piperidin-4yl)carbamoyl]-2,3-dihydro-1H-inden-1-yl]-pyrimidine-5-carboxylic acid amide] | 100% | 70% |
| CN(C(=O)c1ccc2c(c1)[C@H](NC(=O)c1c(F)cccc1Cl)CC2)C1CCN(c2ccncc2)CC1 [Example H-32, (3R)-3-[(2-Chloro-6-fluoro-benzoyl)amino]-N-methyl-N-(1-pyridin-4-yl-piperidin-4-yl)-2,3-dihydro-1H-indene-5-carboxylic acid amide] | 100% | 101% |
| CN(C(=O)c1ccc2c(c1)[C@H](NS(=O)(=O)c1ccccc1Cl)CC2)C1CCN(c2ccncc2)CC1 [Example H-33, (3R)-3-[[(2-Chlorophenyl)sulfonyl]amino]-N-methyl-N-(1-pyridin-4-yl-piperidin-4-yl)-2,3-dihydro-1H-indene-5-carboxylic acid amide] | 100% | 101% |
| CC(C)CC(=O)N[C@@H]1CCc2cc(C(=O)N(C)C3CCN(c4ccncc4)CC3)ccc21 [Example H-34, (1R)-N-Methyl-1-(3-methyl-butanoylamino)-N-(1-pyridin-4-yl-piperidin-4-yl)-2,3-dihydro-1H-indene-5-carboxylic acid amide] | 64% | 7% |

Next, values leading:

| inhibition at 10 µM [1] | inhibition at 10 µM [2] | Structure (SMILES) |
| --- | --- | --- |
| 100% | 105% | CN(C(=O)c1ccc2c(c1)[C@H](NC(=O)Cc1ccccc1Cl)CC2)C1CCN(c2ccncc2)CC1 [Example H-35, (3R)-3-[[2-(2-Chlorophenyl)-acetyl]amino]-N-methyl-N-(1-pyridin-4-yl-piperidin-4-yl)-2,3-dihydro-1H-indene-5-carboxylic acid amide] |
| 100% | 105% | CN(C(=O)c1ccc2c(c1)[C@H](NC(=O)c1cnccc1C(F)(F)F)CC2)C1CCN(c2ccncc2)CC1 [Example H-36, N-[(1R)-6-[Methyl-(1-pyridin-4-yl-piperidin-4-yl)-carbamoyl]-2,3-dihydro-1H-inden-1-yl]-4-(trifluoromethyl)-pyridine-3-carboxylic acid amide] |
| 100% | 107% | CN(C(=O)c1ccc2c(c1)[C@H](NC(=O)c1cccnc1C(F)(F)F)CC2)C1CCN(c2ccncc2)CC1 [Example H-37, N-[(1R)-6-[Methyl-(1-pyridin-4-yl-piperidin-4-yl)-carbamoyl]-2,3-dihydro-1H-inden-1-yl]-2-(trifluoromethyl)-pyridine-3-carboxylic acid amide] |
| 100% | 103% | O=C(N[C@@H]1CCc2ccc(C(=O)N(C3CC3)C3CCN(c4ccncc4)CC3)cc21)c1ccccc1Cl [Example H-38, (3R)-3-[(2-Chloro-benzoyl)amino]-N-cyclopropyl-N-(1-pyridin-4-yl-piperidin-4-yl)-2,3-dihydro-1H-indene-5-carboxylic acid amide] |
| 100% | 100% | CN(C(=O)c1ccc2c(c1)[C@H](NC(=O)c1ccccc1Cl)CC2)C1CCN(c2ccncc2)C1 (stereo partly drawn) [Example H-39, (3R)-3-[(2-Chloro-benzoyl)amino]-N-methyl-N-(1-pyridin-4-yl-pyrrolidin-3-yl)-2,3-dihydro-1H-indene-5-carboxylic acid amide] |
| 52% | 73% | CN1CCC(N2CCC(N(C)C(=O)c3ccc4c(c3)[C@H](NC(=O)c3ccccc3Cl)CC4)CC2)CC1 [Example H-40, (3R)-3-[(2-Chloro-benzoyl)amino]-N-methyl-N-[1-(1-methyl-piperidin-4-yl)-piperidin-4-yl]-2,3-dihydro-1H-indene-5-carboxylic acid amide] |
| 100% | 98% | COc1ncccc1C(=O)N[C@@H]1CCc2ccc(C(=O)N(C)C3CCN(c4ccncc4)CC3)cc21 [Example H-41, 2-Methoxy-N-[(1R)-6-[methyl-(1-pyridin-yl-piperidin-4yl)-carbamoyl]-2,3-dihydro-1H-inden-1-yl]-pyridine-3-carboxylic acid amide] |
| 65% | 18% | CN1CCC(N2CCC(NC(=O)c3ccc4c(c3)CC[C@H]4N3Cc4cccc(Cl)c4C3=O)CC2)CC1 [Example H-42, (1R)-1-(4-Chloro-3-oxo-1,2-dihydro-isoindol-2-yl)-N-[1-(1-methyl-piperidin-4-yl)-piperidin-4-yl]-2,3-dihydro-1H-indene-5-carboxylic acid amide] |
| 22% | 51% | CN(C(=O)c1ccc2c(c1)CC[C@H]2N1Cc2cccc(Cl)c2C1=O)C1CCN(CCc2ccncc2)CC1 [Example H-43, (1R)-1-(4-Chloro-3-oxo-1,2-dihydro-isoindol-2-yl)-N-methyl-N-[1-(2-pyridin-4-yl-ethyl)-piperidin-4-yl]-2,3-dihydro-1H-Indene-5-carboxylic acid amide] |
| 94% | 94% | CN(C(=O)c1ccc2c(c1)OCC[C@H]2NC(=O)c1ccccc1Cl)C1CCN(c2ccncc2)CC1 [Example H-44, (4R)-4-[(2-Chloro-benzoyl)amino]-N-methyl-N-(1-pyridin-4-yl-piperidin-4-yl)-3,4-dihydro-2H-chromene-7-carboxylic acid amide] |
| 98% | 56% | CN(C(=O)c1ccc2c(c1)OCC[C@H]2N1Cc2cccc(Cl)c2C1=O)C1CCN(c2ccncc2)CC1 [Example H-45, (4R)-4-(4-Chloro-3-oxo-1,2-dihydro-isoindol-2-yl)-N-methyl-N-(1-pyridin-4-yl-piperidin-4-yl)-3,4-dihydro-2H-chromene-7-carboxylic acid amide] |
